System: SEM cells
Assay: cell viability relative to DMSO control; higher = less cytotoxic
Conditions: 48 h
In short: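 In 1536-well plates, 5 μl of leukemia cells were seeded per well: 500 cells/well for NOMO1 or SEM and 1000 cells/well for P12-Ichikawa. Each line had first been adapted for at least four passages in each medium. Library compounds in DMSO were pin-dosed at 11 threefold concentrations between 47 μM and 0.79 nM, and CellTiter-Glo One luminescence was read after 48 h at 37°C. Viability is a per-plate percentage relative to DMSO wells, with cell-free wells as background.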

[1] = HPLM + 10% dialyzed FBS, 0.000781 µM
[2] = HPLM + 10% dialyzed FBS, 0.00234 µM
[3] = HPLM + 10% dialyzed FBS, 0.00702 µM
[4] = HPLM + 10% dialyzed FBS, 0.0211 µM
[5] = HPLM + 10% dialyzed FBS, 0.0632 µM
[6] = HPLM + 10% dialyzed FBS, 0.19 µM
[7] = HPLM + 10% dialyzed FBS, 0.569 µM
[8] = HPLM + 10% dialyzed FBS, 1.71 µM
[9] = HPLM + 10% dialyzed FBS, 5.12 µM
[10] = HPLM + 10% dialyzed FBS, 15.4 µM
[11] = HPLM + 10% dialyzed FBS, 46.1 µM
[12] = RPMI 5 mM glucose + 10% FBS, 0.000781 µM
[13] = RPMI 5 mM glucose + 10% FBS, 0.00234 µM
[14] = RPMI 5 mM glucose + 10% FBS, 0.00702 µM
[15] = RPMI 5 mM glucose + 10% FBS, 0.0211 µM
[16] = RPMI 5 mM glucose + 10% FBS, 0.0632 µM
[17] = RPMI 5 mM glucose + 10% FBS, 0.19 µM
[18] = RPMI 5 mM glucose + 10% FBS, 0.569 µM
[19] = RPMI 5 mM glucose + 10% FBS, 1.71 µM
[20] = RPMI 5 mM glucose + 10% FBS, 5.12 µM
[21] = RPMI 5 mM glucose + 10% FBS, 15.4 µM
[22] = RPMI 5 mM glucose + 10% FBS, 46.1 µM
[23] = RPMI 5 mM glucose + 10% dialyzed FBS, 0.000781 µM
[24] = RPMI 5 mM glucose + 10% dialyzed FBS, 0.00234 µM
[25] = RPMI 5 mM glucose + 10% dialyzed FBS, 0.00702 µM
[26] = RPMI 5 mM glucose + 10% dialyzed FBS, 0.0211 µM
[27] = RPMI 5 mM glucose + 10% dialyzed FBS, 0.0632 µM
[28] = RPMI 5 mM glucose + 10% dialyzed FBS, 0.19 µM
[29] = RPMI 5 mM glucose + 10% dialyzed FBS, 0.569 µM
[30] = RPMI 5 mM glucose + 10% dialyzed FBS, 1.71 µM
[31] = RPMI 5 mM glucose + 10% dialyzed FBS, 5.12 µM
[32] = RPMI 5 mM glucose + 10% dialyzed FBS, 15.4 µM
[33] = RPMI 5 mM glucose + 10% dialyzed FBS, 46.1 µM

Structure (SMILES) | cell viability [1] [%] | cell viability [2] [%] | cell viability [3] [%] | cell viability [4] [%] | cell viability [5] [%] | cell viability [6] [%] | cell viability [7] [%] | cell viability [8] [%] | cell viability [9] [%] | cell viability [10] [%] | cell viability [11] [%] | cell viability [12] [%] | cell viability [13] [%] | cell viability [14] [%] | cell viability [15] [%] | cell viability [16] [%] | cell viability [17] [%] | cell viability [18] [%] | cell viability [19] [%] | cell viability [20] [%] | cell viability [21] [%] | cell viability [22] [%] | cell viability [23] [%] | cell viability [24] [%] | cell viability [25] [%] | cell viability [26] [%] | cell viability [27] [%] | cell viability [28] [%] | cell viability [29] [%] | cell viability [30] [%] | cell viability [31] [%] | cell viability [32] [%] | cell viability [33] [%]
Cc1nc2ccc(CN(C)c3ccc(C(=O)N[C@@H](CCC(=O)O)C(=O)O)s3)cc2c(=O)[nH]1 | 90.3 | 93.1 | 101 | 103 | 64.1 | 45 | 41.4 | 42.7 | 35.4 | 39.3 | 38.3 | 96.5 | 115 | 103 | 104 | 118 | 99 | 93 | 85.6 | 83.3 | 82.1 | 82.1 | 98.7 | 113 | 113 | 118 | 106 | 45.9 | 33.2 | 35.3 | 29.6 | 32.4 | 30.5
COCCCC/C(=N\OCCN)c1ccc(C(F)(F)F)cc1 | 86.4 | 100 | 75.7 | 80.8 | 92 | 76.1 | 83.9 | 96.9 | 75.4 | 77 | 28.1 | 94.3 | 86.1 | 79.7 | 94.5 | 92.7 | 85.9 | 87.2 | 92 | 74.6 | 73.7 | 35.6 | 105 | 103 | 88.7 | 95.8 | 111 | 100 | 91.6 | 106 | 99.4 | 93.1 | 52.3
Clc1ccc(CCC(Cn2ccnc2)Sc2c(Cl)cccc2Cl)cc1 (centres undefined) | 73 | 71.5 | 77.3 | 83.5 | 72.8 | 95 | 76.3 | 77.3 | 80.1 | 76.8 | 61.2 | 78.7 | 88 | 97.7 | 89.7 | 85.7 | 83.6 | 101 | 100 | 92.6 | 86.1 | 52.5 | 78.8 | 88.7 | 100 | 92.5 | 82 | 103 | 89.4 | 77.4 | 76.9 | 85.3 | 57.3
NC[C@H](O)c1ccc(O)c(O)c1 | 93.3 | 102 | 111 | 101 | 95.9 | 98.2 | 92 | 85.4 | 92.8 | 84.5 | 78.4 | 84 | 115 | 102 | 109 | 97.7 | 100 | 97 | 89.5 | 97.5 | 82.8 | 81.5 | 84.9 | 103 | 88.5 | 103 | 104 | 99.1 | 100 | 91.9 | 96.7 | 96.9 | 72.9
CN1CCC(CNc2ccc3ncc(-c4cccc(OC(F)(F)F)c4)n3n2)CC1 | 107 | 102 | 104 | 95.6 | 89.1 | 89.7 | 74.5 | 49.7 | 41.6 | 32.2 | 5.1 | 109 | 110 | 113 | 97.4 | 96.4 | 97.6 | 78.3 | 52.9 | 42.5 | 35.5 | 6.26 | 93.3 | 109 | 92.8 | 98.7 | 99.4 | 87.3 | 77.3 | 42.3 | 32.4 | 30.4 | 6.78
N#Cc1cc(NC(=O)Nc2nnc(-c3ccncc3)s2)ccc1-c1cn[nH]c1 |  |  |  |  |  |  |  |  |  |  |  | 96 | 111 | 93 | 85.1 | 96.4 | 106 | 107 | 105 | 87.9 | 93.1 | 89.2 | 107 | 120 | 128 | 107 | 98.6 | 129 | 113 | 122 | 127 | 93 | 108
CO[C@H]1C[C@@H]2CC[C@@H](C)[C@@](O)(O2)C(=O)C(=O)N2CCCC[C@H]2C(=O)O[C@H]([C@@H](C)C[C@@H]2CC[C@@H](O)[C@H](OC)C2)CC(=O)[C@H](C)/C=C(\C)[C@@H](O)[C@@H](OC)C(=O)[C@H](C)C[C@H](C)/C=C/C=C/C=C/1C | 95.4 | 95.3 | 88 | 83.2 | 86.9 | 81.7 | 81.9 | 74.2 | 80.1 | 79.5 | 61.3 | 98.6 | 84.3 | 89.4 | 94.9 | 80.6 | 77.3 | 75.7 | 80.7 | 68 | 70.6 | 60.6 | 96.9 | 87.2 | 102 | 85.7 | 89.8 | 81.3 | 85.5 | 84.4 | 81.6 | 81.7 | 52.6
OC1=C(Cl)C=C(N\C2=C(\C(=O)NC2=O)C3=C(C=CC=C3)[N+]([O-])=O)C=C1 | 78.4 | 92.9 | 105 | 96.9 | 93 | 102 | 98 | 115 | 86.9 | 56.3 | 6 | 103 | 109 | 106 | 123 | 109 | 120 | 104 | 104 | 93.6 | 60.8 | 25.2 | 94.7 | 99.1 | 98.2 | 99.4 | 113 | 98.9 | 116 | 110 | 88.2 | 62.8 | 27.2
CN(CC(=O)N(Cc1ccc(C2CCCCC2)cc1)c1ccc(C(=O)O)c(O)c1)[S+](=O)([O-])c1c(F)c(F)c(F)c(F)c1F | 83.5 | 94.7 | 104 | 95.8 | 103 | 93.7 | 92.7 | 97.7 | 84.8 | 86.5 | 31.1 | 80.8 | 104 | 90 | 93.1 | 88.9 | 101 | 103 | 97.8 | 77.4 | 54.8 | 6.03 | 87 | 91.1 | 93.1 | 89.2 | 103 | 101 | 84.5 | 91.3 | 80.3 | 66.6 | 19.9
CCCCN1CCC(CNC(=O)c2c3n(c4ccccc24)CCCO3)CC1 | 81.3 | 85.3 | 92.1 | 90.9 | 94.5 | 57.7 | 117 | 107 | 108 | 89.7 | 68.4 | 84.9 | 102 | 112 | 91.3 | 117 | 75.3 | 105 | 118 | 113 | 93.5 | 80.6 | 105 | 101 | 110 | 94.4 | 111 | 67.5 | 103 | 103 | 115 | 79 | 79.8
N#Cc1c(N(CC(=O)[O-])CC(=O)[O-])sc(C(=O)[O-])c1CC(=O)[O-].O.O.O.O.O.O.O.[Sr+2].[Sr+2] | 111 | 113 | 122 | 111 | 117 | 130 | 127 | 132 | 144 | 103 | 87.9 | 117 | 124 | 131 | 138 | 149 | 146 | 153 | 132 | 143 | 124 | 102 | 111 | 107 | 123 | 121 | 129 | 131 | 134 | 128 | 112 | 89.3 | 67.9
CCCCCN(C)CCC(O)(P(=O)([O-])O)P(=O)(O)O | 57.1 | 71.9 | 72.8 | 85.3 | 71.8 | 91.8 | 88.3 | 21.9 | 82.8 | 104 | 75.2 | 74.5 | 88.1 | 84.1 | 90.4 | 75.5 | 100 | 98.3 | 16.9 | 77.5 | 107 | 73.3 | 70 | 85.4 | 69 | 95.7 | 71.5 | 87.9 | 83.2 | 17.4 | 86.4 | 102 | 78.4
CC(O)(C[S+](=O)([O-])c1ccc(F)cc1)C(=O)Nc1ccc(C#N)c(C(F)(F)F)c1 (centres undefined) | 86.8 | 96.4 | 91 | 80.3 | 85.2 | 96.2 | 96.2 | 93.5 | 97.4 | 83.2 | 73.9 | 84.9 | 83.6 | 98 | 87 | 88.7 | 103 | 96.3 | 96.5 | 91.8 | 76.8 | 62.9 | 87.2 | 84.4 | 98.1 | 94.8 | 80 | 102 | 86.8 | 102 | 99.1 | 72.3 | 55
C[C@H](NC(=O)[C@@H](O)c1cc(F)cc(F)c1)C(=O)N[C@@H]1C(=O)N(C)c2ccccc2-c2ccccc21 |  |  |  |  |  |  |  |  |  |  |  | 120 | 121 | 120 | 135 | 122 | 128 | 107 | 115 | 111 | 121 | 85.9 |  |  |  |  |  |  |  |  |  |  | 

Reference: the supplement of paper PMC11451515
